# Where “and” joins values, the source holds several entries; their conditions need not be identical. Equal values may be shown once.
# System: KRAS patient-derived spheroids with HUVEC/MSC, viability
# Experiment: Anticancer human tumor 519858-162-T-J1-PDC patient-derived colon adenocarcinoma cell line growth inhibition [KRAS2]
# Conditions: for viability, T/C: stronger effect = lower value
# Method in brief: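 KRAS-mutant tumor cells were grown as spheroids with HUVEC endothelial cells and human MSCs as stroma. Targeted agents were tested alone and with KRAS pathway inhibitors. Doses started at or near clinical Cmax, or 10 microM, descending half-log.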
# [1] = curve of first compound, second compound 0.1 µM
# [2] = curve of first compound, second compound 0.316 µM
# [3] = curve of first compound, second compound 1 µM
# [4] = curve of first compound, second compound 3.16 µM
# [5] = curve of first compound, second compound 10 µM
# [6] = second compound 0.1 µM, first compound 0.000316 µM
# [7] = second compound 0.1 µM, first compound 0.001 µM
# [8] = second compound 0.1 µM, first compound 0.00316 µM
# [9] = second compound 0.1 µM, first compound 0.01 µM
# [10] = second compound 0.1 µM, first compound 0.0316 µM
# [11] = second compound 0.1 µM, first compound 0.1 µM
# [12] = second compound 0.316 µM, first compound 0.000316 µM
# [13] = second compound 0.316 µM, first compound 0.001 µM
# [14] = second compound 0.316 µM, first compound 0.00316 µM
# [15] = second compound 0.316 µM, first compound 0.01 µM
# [16] = second compound 0.316 µM, first compound 0.0316 µM
# [17] = second compound 0.316 µM, first compound 0.1 µM
# [18] = second compound 1 µM, first compound 0.000316 µM
# [19] = second compound 1 µM, first compound 0.001 µM
# [20] = second compound 1 µM, first compound 0.00316 µM
# [21] = second compound 1 µM, first compound 0.01 µM
# [22] = second compound 1 µM, first compound 0.0316 µM
# [23] = second compound 1 µM, first compound 0.1 µM
# [24] = second compound 3.16 µM, first compound 0.000316 µM
# [25] = second compound 3.16 µM, first compound 0.001 µM
# [26] = second compound 3.16 µM, first compound 0.00316 µM
# [27] = second compound 3.16 µM, first compound 0.01 µM
# [28] = second compound 3.16 µM, first compound 0.0316 µM
# [29] = second compound 3.16 µM, first compound 0.1 µM
# [30] = second compound 10 µM, first compound 0.000316 µM
# [31] = second compound 10 µM, first compound 0.001 µM
# [32] = second compound 10 µM, first compound 0.00316 µM
# [33] = second compound 10 µM, first compound 0.01 µM
# [34] = second compound 10 µM, first compound 0.0316 µM
# [35] = second compound 10 µM, first compound 0.1 µM
# [36] = curve of first compound, second compound 0.0316 µM
# [37] = second compound 0.0316 µM, first compound 0.0316 µM
# [38] = second compound 0.0316 µM, first compound 0.1 µM
# [39] = second compound 0.0316 µM, first compound 0.316 µM
# [40] = second compound 0.0316 µM, first compound 1 µM
# [41] = second compound 0.1 µM, first compound 0.316 µM
# [42] = second compound 0.1 µM, first compound 1 µM
# [43] = second compound 0.316 µM, first compound 0.316 µM
# [44] = second compound 0.316 µM, first compound 1 µM
# [45] = second compound 1 µM, first compound 0.316 µM
# [46] = second compound 1 µM, first compound 1 µM
# [47] = second compound 3.16 µM, first compound 0.316 µM
# [48] = second compound 3.16 µM, first compound 1 µM
# 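Note: compound exposure lasted seven days before readout.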
# 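Throughout, for viability, T/C: 100% = DMSO vehicle control viability.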
compound,measurement,setting,value
CC(C)n1nc(-c2ccc3oc(N)nc3c2)c2c(N)ncnc21 + CNCc1ccccc1-c1csc(C(C)Nc2nc(C)nc3cc(OC)c(OC)cc23)c1,IC50,[1],> 100 nM
same,IC50,[2],> 100 nM
same,IC50,[3],> 100 nM
same,IC50,[4],5.41 nM
same,IC50,[5],< 0.316 nM
same,"viability, T/C",[6],80.2%
same,"viability, T/C",[7],70.6%
same,"viability, T/C",[8],77.7%
same,"viability, T/C",[9],72.5%
same,"viability, T/C",[10],67%
same,"viability, T/C",[11],53.5%
same,"viability, T/C",[12],76.5%
same,"viability, T/C",[13],68.5%
same,"viability, T/C",[14],69.5%
same,"viability, T/C",[15],83.2%
same,"viability, T/C",[16],66.8%
same,"viability, T/C",[17],62.5%
same,"viability, T/C",[18],91.9%
same,"viability, T/C",[19],69.1%
same,"viability, T/C",[20],78.2%
same,"viability, T/C",[21],42.7%
same,"viability, T/C",[22],73.1%
same,"viability, T/C",[23],86.3%
same,"viability, T/C",[24],68%
same,"viability, T/C",[25],65%
same,"viability, T/C",[26],55.1%
same,"viability, T/C",[27],39.8%
same,"viability, T/C",[28],49.6%
same,"viability, T/C",[29],43.1%
same,"viability, T/C",[30],0.52%
same,"viability, T/C",[31],0.58%
same,"viability, T/C",[32],0.46%
same,"viability, T/C",[33],0.32%
same,"viability, T/C",[34],0.36%
same,"viability, T/C",[35],0.73%
CC1OCC2(CCN(c3cnc(Sc4ccnc(N)c4Cl)c(N)n3)CC2)C1N (centres undefined),"viability, T/C",compound 0.0316 µM,81.1% and 93.6% and 89.9%
same,IC50,"compound alone, run of 07/12/2021",> 10000 nM
same,IC50,"compound alone, run of 07/19/2021",9240 nM and > 10000 nM
same,IC50,curve of compound,> 10000 nM and 10000 nM
Cn1ncnc1[C@H]1c2n[nH]c(=O)c3cc(F)cc(c23)N[C@@H]1c1ccc(F)cc1 + CC1OCC2(CCN(c3cnc(Sc4ccnc(N)c4Cl)c(N)n3)CC2)C1N,IC50,[1],> 100 nM
same,IC50,[2],> 100 nM
same,IC50,[3],> 100 nM
same,IC50,[4],> 100 nM
same,IC50,[5],> 100 nM
same,"viability, T/C",[6],81.5%
same,"viability, T/C",[7],81.4%
same,"viability, T/C",[8],91.9%
same,"viability, T/C",[9],88.9%
same,"viability, T/C",[10],81.5%
same,"viability, T/C",[11],101%
same,"viability, T/C",[12],68%
same,"viability, T/C",[13],87.3%
same,"viability, T/C",[14],77%
same,"viability, T/C",[15],56.7%
same,"viability, T/C",[16],77.3%
same,"viability, T/C",[17],80.2%
same,"viability, T/C",[18],99.4%
same,"viability, T/C",[19],58.1%
same,"viability, T/C",[20],82.4%
same,"viability, T/C",[21],65.5%
same,"viability, T/C",[22],59.1%
same,"viability, T/C",[23],82.9%
same,"viability, T/C",[24],57.1%
same,"viability, T/C",[25],49.4%
same,"viability, T/C",[26],59.5%
same,"viability, T/C",[27],53.7%
same,"viability, T/C",[28],59.9%
same,"viability, T/C",[29],75.1%
same,"viability, T/C",[30],62%
same,"viability, T/C",[31],68.4%
same,"viability, T/C",[32],84.7%
same,"viability, T/C",[33],65.7%
same,"viability, T/C",[34],65.4%
same,"viability, T/C",[35],65.8%
COc1cc2nccc(Oc3ccc(NC(=O)C4(C(=O)Nc5ccc(F)cc5)CC4)cc3)c2cc1OC + C=CC(=O)N1CCN(c2nc(OCC3CCCN3C)nc3c2CCN(c2cccc4cccc(C)c24)C3)CC1CC#N,IC50,[36],> 10000 nM
same,IC50,[1],> 10000 nM
same,IC50,[2],> 10000 nM
same,IC50,[3],> 10000 nM
same,IC50,[4],4780 nM
same,"viability, T/C",[37],73.6%
same,"viability, T/C",[38],99.7%
same,"viability, T/C",[39],91.6%
same,"viability, T/C",[40],78.1%
same,"viability, T/C","second compound 0.0316 µM, first compound 3.16 µM",103%
same,"viability, T/C","second compound 0.0316 µM, first compound 10 µM",122%
same,"viability, T/C",[10],85.2%
same,"viability, T/C",[11],98.3%
same,"viability, T/C",[41],80.3%
same,"viability, T/C",[42],77.9%
same,"viability, T/C","second compound 0.1 µM, first compound 3.16 µM",77.2%
same,"viability, T/C","second compound 0.1 µM, first compound 10 µM",84.5%
same,"viability, T/C",[16],109%
same,"viability, T/C",[17],82.5%
same,"viability, T/C",[43],109%
same,"viability, T/C",[44],99.1%
same,"viability, T/C","second compound 0.316 µM, first compound 3.16 µM",98.5%
same,"viability, T/C","second compound 0.316 µM, first compound 10 µM",132%
same,"viability, T/C",[22],71.5%
same,"viability, T/C",[23],74.5%
same,"viability, T/C",[45],77.6%
same,"viability, T/C",[46],76.8%
same,"viability, T/C","second compound 1 µM, first compound 3.16 µM",104%
same,"viability, T/C","second compound 1 µM, first compound 10 µM",145%
same,"viability, T/C",[28],77.6%
same,"viability, T/C",[29],72.2%
same,"viability, T/C",[47],69.5%
same,"viability, T/C",[48],74.8%
same,"viability, T/C","second compound 3.16 µM, first compound 3.16 µM",93.5%
same,"viability, T/C","second compound 3.16 µM, first compound 10 µM",0.86%
CCN1CCN(Cc2ccc(Nc3ncc(F)c(-c4cc(F)c5nc(C)n(C(C)C)c5c4)n3)nc2)CC1 + C=CC(=O)N1CCN(c2nc(OCC3CCCN3C)nc3c2CCN(c2cccc4cccc(C)c24)C3)CC1CC#N,IC50,[36],> 1000 nM
same,IC50,[1],599 nM
same,IC50,[2],> 1000 nM
same,IC50,[3],654 nM
same,IC50,[4],> 1000 nM
same,"viability, T/C","second compound 0.0316 µM, first compound 0.00316 µM",76.5%
same,"viability, T/C","second compound 0.0316 µM, first compound 0.01 µM",57.7%
same,"viability, T/C",[37],72.2%
same,"viability, T/C",[38],63.6%
same,"viability, T/C",[39],81.8%
same,"viability, T/C",[40],66.2%
same,"viability, T/C",[8],81.6%
same,"viability, T/C",[9],79.1%
same,"viability, T/C",[10],75.8%
same,"viability, T/C",[11],76.4%
same,"viability, T/C",[41],68.7%
same,"viability, T/C",[42],34.9%
same,"viability, T/C",[14],61.7%
same,"viability, T/C",[15],78.4%
same,"viability, T/C",[16],70.7%
same,"viability, T/C",[17],64.9%
same,"viability, T/C",[43],49.1%
same,"viability, T/C",[44],56.5%
same,"viability, T/C",[20],82.1%
same,"viability, T/C",[21],71.8%
same,"viability, T/C",[22],60.8%
same,"viability, T/C",[23],63%
same,"viability, T/C",[45],73%
same,"viability, T/C",[46],38.4%
same,"viability, T/C",[26],51.3%
same,"viability, T/C",[27],86.8%
same,"viability, T/C",[28],64.4%
same,"viability, T/C",[29],69.2%
same,"viability, T/C",[47],76%
same,"viability, T/C",[48],37.4%
